Patent publication US20230158071A1, “TUMOR COMBINED IMMUNOTHERAPY” (CRAGE medical Co., Limited, priority 2018, published 2023)

Experiments:
Assay type in all cases: cell-based, mouse
806-mCD28z-CAR-T cells = assay: Flow cytometry (CellTrace) of CAR-T proliferation in co-culture with breast cancer cells; conditions: co-incubation 1:1, 16 hours
Protocol: (§1) The experimental groups are as follows: 806-mCD28z-CAR-T group (or denoted as 806-28Z), olaparib pretreatment group, and olaparib combined treatment group;
(§2) The olaparib pretreatment group comprises: 806-mCD28z-CAR-T+1 μM olaparib pretreatment group (or denoted as 806-28Z+Olaparib 1 μM pretreatment), 806-mCD28z-CAR-T+5 μM olaparib pretreatment group (or denoted as 806-28Z+Olaparib 5 μM pretreatment);
(§3) Olaparib combined treatment group comprises: 806-mCD28z-CAR-T+1 μM olaparib combined treatment group (or denoted as 806-28Z+Olaparib 1 μM), 806-mCD28z-CAR-T+5 μM olaparib combined treatment group (or denoted as 806-28Z+Olaparib 5 μM).
Before the co-incubation experiment, 806-mCD28z-CAR-T cells need to be stained with CellTrace dye. […]
Olaparib pretreatment group: different concentrations of olaparib (1 μM, 5 μM) are respectively added to a medium for culturing E0771-EGFRvIII or 4T1-EGFRvIII tumor cells, after culturing at 37° C. for 24 hours, the cells are treated with trypsin and resuspended in fresh medium. 806-mCD28z-CAR T cells in Example 1 are taken to co-incubate with E0771-EGFRVIII or 4T1-EGFRvIII cells pretreated with different concentrations of olaparib at a ratio of 1:1; 16 hours later, the proliferation of CAR-T cells and the expression levels of the T cell exhaustion-related proteins PD1, LAG3 and TIM3 on the surface of CAR-T cells are detected by flow cytometry. […]

4T1-EGFRvIII cells = assay: CCK8 proliferation assay, olaparib on 4T1-EGFRvIII breast cancer cells
Excerpt: Since the EGFR287-302 epitope is only exposed in EGFRvIII or tumors overexpressing EGFR, this epitope is hidden in normal tissues (Gan H K et al., Targeting of a conformationally exposed, tumor-specific epitope of EGFR as a strategy for cancer therapy. Cancer Res. 2012, 72(12):2924-2930), conventional methods in molecular biology are used to establish E0771, 4T1 mouse breast cancer cell models (E0771-EGFRvIII, 4T1-EGFRvIII) that overexpress mouse EGFR inserted with amino acid epitope at positions 287-302 of human EGFR. Subsequent research is performed to screen EGFRvIII target-positive cells by cell flow cytometry (FIG. 2A). E0771, 4T1 cells are purchased from the American Type Culture Collection (ATCC).
As an effective inhibitor of PARP1, olaparib may inhibit PARP1 to participate in DNA damage repair process. In mouse breast cancer cell lines and mouse T cells and CART cells, different levels of PARP1 expression are detected (FIG. 2B). Therefore, CCK8 proliferation assay is required to detect the effect of olaparib on proliferation of tumor cells and CART cells.
806-m28Z CAR-T cells in Example 1 are taken to spread in a 96-well plate with 1×10^4 cells per well and 100 μl medium. Breast cancer cells E0771-EGFRvIII and 4T1-EGFRvIII are taken to spread in a 96-well plate with 1×10^4 cells per well and 100 μl medium. Different concentrations of olaparib are taken to add to the cells to make 10 concentration gradients (i.e., the treatment concentrations of olaparib are respectively 50 μM, 20 μM, 10 μM, 5 μM, 2.5 μM, 1 μM, 0.1 μM, 0.01 μM, 0.001 μM, 0 μg/ml). After 48 hours of drug treatment for cells of different groups, 10 μl of CCK8 substrate color reagent (Dojindo) is added to each well; after incubating for 1 hour at 37° C., the absorbance at 450 nm is measured by a microplate reader, calculating the cell viability respectively.
The formula for calculating the cell viability is as follows:
Cell viability (%)=[A (adding drug)−A (blank)]/[A (without adding drug)−A (blank)]

[1] = system: exhaustion-related proteins PD1, LAG3 and TIM3 on the surface of CAR-T cells; assay: Flow cytometry of exhaustion-related proteins on CAR-T cells in co-culture
Protocol: as §1, §2, §3
(§4) Olaparib pretreatment group: different concentrations of olaparib (1 μM, 5 μM) are respectively added to a medium for culturing E0771-EGFRvIII or 4T1-EGFRvIII tumor cells, after culturing at 37° C. for 24 hours, the cells are treated with trypsin and resuspended in fresh medium. 806-mCD28z-CAR T cells in Example 1 are taken to co-incubate with E0771-EGFRVIII or 4T1-EGFRvIII cells pretreated with different concentrations of olaparib at a ratio of 1:1; 16 hours later, the proliferation of CAR-T cells and the expression levels of the T cell exhaustion-related proteins PD1, LAG3 and TIM3 on the surface of CAR-T cells are detected by flow cytometry.
as §4, with “combined treatment” for “pretreatment”, “E0771-EGFRvIII” for “E0771-EGFRVIII”, “1:1; after corresponding concentrations of olaparib (1 μM, 5 μM) are respectively added to the medium for” for “1:1;”, “hours,” for “hours later,”, “LAG-3” for “LAG3”

[2] = olaparib combined treatment group

## O=C(c1cc(Cc2n[nH]c(=O)c3ccccc23)ccc1F)N1CCN(C(=O)C2CC2)CC1 [olaparib]
806-mCD28z-CAR-T cells; olaparib combined treatment group (1 μM, 5 μM), not statistically significant
  proliferation of CART cells: slightly inhibited
806-mCD28z-CAR-T cells; olaparib pretreatment group (1 μM, 5 μM)
  proliferation of CART cells: not significantly affected
4T1-EGFRvIII cells; 1 μM and higher concentration of olaparib, 48 hours, CCK8
  inhibition rate of proliferation of 4T1-EGFRvIII cell line: 30-40%
4T1-EGFRvIII cells; 1 μM olaparib
  proliferation of 4T1-EGFRvIII cells: inhibited
4T1-EGFRvIII cells; 504 olaparib
  proliferation of 4T1-EGFRvIII cells: inhibited
[1]; [2]
  expression level of LAG3 on the surface of CAR-T cells: do not change significantly
  expression level of PD1 on the surface of CAR-T cells: do not change significantly
  expression level of TIM3 on the surface of CAR-T cells: do not change significantly
[1]; olaparib pretreatment group
  expression level of LAG3 on the surface of CAR-T cells: do not change significantly
  expression level of PD1 on the surface of CAR-T cells: do not change significantly
  expression level of TIM3 on the surface of CAR-T cells: do not change significantly
